Data reported in ChEMBL document CHEMBL5131564, “Discovery of Potent and Selective Receptor-Interacting Serine/Threonine Protein Kinase 2 (RIPK2) Inhibitors for the Treatment of Inflammatory Bowel Diseases (IBDs)” (J Med Chem, 2022).
pIC50, pKd: −log10 of the molar value. Calls of active or inactive are those of the source. The calls are words filed in the database; no cut-off is given here.

Assays:
[1] = Clearance in Balb/C mouse plasma at 10 mg/kg, po measured upto 48 hrs by LC-MS/MS analysis; assay type: ADME, organism-based
[2] = target: Receptor-interacting serine/threonine-protein kinase 3 (Homo sapiens, UniProt Q9Y572); assay: Binding affinity to human RIPK3 in human Jurkat cells; assay type: cell-based
Chain of Receptor-interacting serine/threonine-protein kinase 3 (Q9Y572 whole entry): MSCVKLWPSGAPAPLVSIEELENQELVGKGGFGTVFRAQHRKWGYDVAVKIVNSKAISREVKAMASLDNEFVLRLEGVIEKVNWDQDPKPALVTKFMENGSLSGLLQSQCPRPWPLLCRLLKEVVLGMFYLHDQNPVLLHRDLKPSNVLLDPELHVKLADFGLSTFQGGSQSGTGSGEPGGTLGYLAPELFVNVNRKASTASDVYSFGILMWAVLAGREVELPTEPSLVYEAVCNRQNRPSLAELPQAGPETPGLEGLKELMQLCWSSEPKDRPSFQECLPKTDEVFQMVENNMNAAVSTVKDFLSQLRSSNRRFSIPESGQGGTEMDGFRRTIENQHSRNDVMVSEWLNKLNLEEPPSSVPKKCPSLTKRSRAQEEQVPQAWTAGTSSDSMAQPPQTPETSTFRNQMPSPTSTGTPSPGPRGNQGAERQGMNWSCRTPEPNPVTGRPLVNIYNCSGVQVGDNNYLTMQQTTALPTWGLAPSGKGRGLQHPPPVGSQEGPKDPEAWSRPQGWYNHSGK

[3] = target: T1, Dual serine/threonine and tyrosine protein kinase (Homo sapiens, UniProt Q6XUX3); assay: Binding affinity to human RIPK5
T1 sequence (Q6XUX3 whole entry): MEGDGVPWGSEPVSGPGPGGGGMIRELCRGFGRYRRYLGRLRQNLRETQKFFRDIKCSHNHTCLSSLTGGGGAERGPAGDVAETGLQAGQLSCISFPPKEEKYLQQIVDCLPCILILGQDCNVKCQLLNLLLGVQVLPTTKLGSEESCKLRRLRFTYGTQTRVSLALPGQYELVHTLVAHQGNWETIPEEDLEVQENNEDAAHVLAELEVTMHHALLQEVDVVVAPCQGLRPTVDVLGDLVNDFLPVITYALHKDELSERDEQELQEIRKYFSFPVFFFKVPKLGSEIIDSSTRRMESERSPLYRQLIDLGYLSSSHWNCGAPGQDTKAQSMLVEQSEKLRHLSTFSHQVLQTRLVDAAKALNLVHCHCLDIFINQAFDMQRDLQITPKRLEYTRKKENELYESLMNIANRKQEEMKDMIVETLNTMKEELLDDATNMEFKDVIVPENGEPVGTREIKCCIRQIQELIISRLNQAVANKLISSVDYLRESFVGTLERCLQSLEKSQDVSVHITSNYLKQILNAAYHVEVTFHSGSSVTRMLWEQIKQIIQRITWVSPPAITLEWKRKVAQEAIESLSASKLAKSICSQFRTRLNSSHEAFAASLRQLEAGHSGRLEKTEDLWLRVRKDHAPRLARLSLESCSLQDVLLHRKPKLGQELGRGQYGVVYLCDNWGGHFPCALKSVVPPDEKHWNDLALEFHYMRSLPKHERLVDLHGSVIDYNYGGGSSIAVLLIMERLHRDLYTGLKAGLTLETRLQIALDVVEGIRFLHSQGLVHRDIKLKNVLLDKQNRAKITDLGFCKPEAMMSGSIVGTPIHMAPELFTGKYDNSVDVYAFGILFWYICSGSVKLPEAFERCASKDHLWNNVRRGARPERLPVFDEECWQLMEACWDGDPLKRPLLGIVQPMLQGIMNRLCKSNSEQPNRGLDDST

[4] = target: Epithelial discoidin domain-containing receptor 1 (Homo sapiens, UniProt Q08345); assay: Inhibition of human DDR1 by kinase assay
Chain of Epithelial discoidin domain-containing receptor 1 (Q08345 whole entry, the tested form may be a part): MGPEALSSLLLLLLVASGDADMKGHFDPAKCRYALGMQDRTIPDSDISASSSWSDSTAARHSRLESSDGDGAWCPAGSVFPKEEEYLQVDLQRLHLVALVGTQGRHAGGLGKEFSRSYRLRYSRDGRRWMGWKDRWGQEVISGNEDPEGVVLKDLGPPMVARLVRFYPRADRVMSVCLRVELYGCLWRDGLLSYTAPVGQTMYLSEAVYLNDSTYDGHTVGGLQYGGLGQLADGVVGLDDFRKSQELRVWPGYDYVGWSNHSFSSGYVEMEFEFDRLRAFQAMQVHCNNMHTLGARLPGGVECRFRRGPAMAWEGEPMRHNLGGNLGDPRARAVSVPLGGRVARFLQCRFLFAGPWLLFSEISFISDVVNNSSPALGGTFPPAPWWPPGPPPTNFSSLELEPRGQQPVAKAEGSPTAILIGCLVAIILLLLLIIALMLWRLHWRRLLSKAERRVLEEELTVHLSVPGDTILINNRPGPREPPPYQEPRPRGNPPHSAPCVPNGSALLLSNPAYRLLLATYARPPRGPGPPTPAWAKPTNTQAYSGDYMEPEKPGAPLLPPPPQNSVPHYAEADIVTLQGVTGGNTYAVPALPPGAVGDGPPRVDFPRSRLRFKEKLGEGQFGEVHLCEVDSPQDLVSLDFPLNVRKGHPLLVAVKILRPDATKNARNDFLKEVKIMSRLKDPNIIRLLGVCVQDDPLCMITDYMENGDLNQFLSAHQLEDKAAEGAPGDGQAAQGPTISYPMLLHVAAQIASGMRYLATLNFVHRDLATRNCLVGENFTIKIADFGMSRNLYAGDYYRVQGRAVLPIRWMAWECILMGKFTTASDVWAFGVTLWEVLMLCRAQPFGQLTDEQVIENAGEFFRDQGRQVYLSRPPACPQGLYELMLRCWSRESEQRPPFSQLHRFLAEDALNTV

[5] = target: Platelet-derived growth factor receptor beta (Homo sapiens, UniProt P09619); assay: Inhibition of human PDGFRbeta by kinase assay
Chain of Platelet-derived growth factor receptor beta (P09619 whole entry): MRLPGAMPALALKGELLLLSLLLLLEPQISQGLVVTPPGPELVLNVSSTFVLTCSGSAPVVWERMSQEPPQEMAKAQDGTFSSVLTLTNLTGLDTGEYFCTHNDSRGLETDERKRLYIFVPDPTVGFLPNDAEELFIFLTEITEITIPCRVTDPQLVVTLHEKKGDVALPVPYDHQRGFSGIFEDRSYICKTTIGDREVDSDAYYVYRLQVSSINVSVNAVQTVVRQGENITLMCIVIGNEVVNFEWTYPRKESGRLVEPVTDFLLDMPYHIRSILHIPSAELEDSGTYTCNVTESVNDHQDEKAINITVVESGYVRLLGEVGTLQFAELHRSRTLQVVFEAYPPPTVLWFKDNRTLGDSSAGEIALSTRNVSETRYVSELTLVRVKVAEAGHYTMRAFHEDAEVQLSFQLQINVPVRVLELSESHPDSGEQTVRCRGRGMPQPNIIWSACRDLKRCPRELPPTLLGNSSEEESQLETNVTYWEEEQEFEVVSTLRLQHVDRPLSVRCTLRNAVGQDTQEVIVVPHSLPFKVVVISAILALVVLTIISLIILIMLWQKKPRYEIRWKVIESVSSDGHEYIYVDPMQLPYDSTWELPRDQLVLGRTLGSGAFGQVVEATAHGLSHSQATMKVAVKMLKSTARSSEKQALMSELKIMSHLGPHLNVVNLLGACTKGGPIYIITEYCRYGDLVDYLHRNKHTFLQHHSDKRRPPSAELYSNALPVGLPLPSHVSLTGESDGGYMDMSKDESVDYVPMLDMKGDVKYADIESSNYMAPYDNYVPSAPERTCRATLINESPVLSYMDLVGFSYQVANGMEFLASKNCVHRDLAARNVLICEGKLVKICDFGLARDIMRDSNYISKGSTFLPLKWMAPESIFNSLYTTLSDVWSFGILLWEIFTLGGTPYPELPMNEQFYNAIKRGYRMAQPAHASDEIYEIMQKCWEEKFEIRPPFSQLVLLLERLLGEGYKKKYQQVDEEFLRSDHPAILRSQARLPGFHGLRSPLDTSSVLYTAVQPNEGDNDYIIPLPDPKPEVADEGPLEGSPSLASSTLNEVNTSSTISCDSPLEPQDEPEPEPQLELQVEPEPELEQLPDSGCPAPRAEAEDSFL

[6] = target: Receptor-interacting serine/threonine-protein kinase 2 (Homo sapiens, UniProt O43353); assay: Binding affinity to human RIPK2 in HEK293 cells; assay type: cell-based
Chain of Receptor-interacting serine/threonine-protein kinase 2 (O43353 whole entry): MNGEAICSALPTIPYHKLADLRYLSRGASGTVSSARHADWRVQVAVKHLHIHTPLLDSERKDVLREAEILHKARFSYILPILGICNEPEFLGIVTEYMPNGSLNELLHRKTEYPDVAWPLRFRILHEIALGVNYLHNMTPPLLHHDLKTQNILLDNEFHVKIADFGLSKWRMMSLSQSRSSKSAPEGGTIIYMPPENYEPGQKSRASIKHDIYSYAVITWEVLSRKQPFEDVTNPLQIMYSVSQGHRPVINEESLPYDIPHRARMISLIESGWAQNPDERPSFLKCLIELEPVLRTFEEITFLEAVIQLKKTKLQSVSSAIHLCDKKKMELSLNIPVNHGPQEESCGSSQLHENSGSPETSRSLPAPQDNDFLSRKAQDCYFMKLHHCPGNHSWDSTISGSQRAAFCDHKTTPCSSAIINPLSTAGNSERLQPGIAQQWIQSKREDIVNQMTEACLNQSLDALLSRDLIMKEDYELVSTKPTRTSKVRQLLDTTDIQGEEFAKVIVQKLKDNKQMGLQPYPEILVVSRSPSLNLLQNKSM

[7] = Drug uptake in DSS-induced acute ulcerative colitis C57BL/6 mouse model assessed as drug concentration in colon at 20 mg/kg, po after 8 hrs; assay type: ADME, organism-based; details: read-out: Drug uptake
Mus musculus [8] = assay: Anti-inflammatory activity against DSS-induced acute ulcerative colitis C57BL/6 mouse model assessed as recovery of body weight at 20 to 40 mg/kg, po once a day measured after 2 days followed by 7 days after DSS treatment; assay type: functional, organism-based; details: dose 20-40 mg/kg, time 2.0 day
BMDM = assay: Cytotoxicity against mouse BMDM cells at 62.5 to 250 nM in presence of NOD; assay type: toxicity, cell-based; details: 0.25 µM, dose 62.5-250 nM
[9] = AUC (0 to t) in Balb/C mouse at 10 mg/kg, po measured upto 48 hrs by LC-MS/MS analysis; assay type: ADME, organism-based; set-up: time < 48 hrs, dose 10 mg/kg, route po; details: in vivo
Mus musculus [10] = assay: Anti-inflammatory activity against DSS-induced acute ulcerative colitis C57BL/6 mouse model assessed as reduction in watery stools at 20 to 40 mg/kg, po once a day measured after 2 days followed by 7 days after DSS treatment; assay type: functional, organism-based; details: dose 20-40 mg/kg, time 2.0 day
[11] = Toxicity in rat H9c2 cells assessed as inhibitory rate; assay type: cell-based
[12] = Elimination half life in Balb/C mouse at 10 mg/kg, iv measured upto 48 hrs by LC-MS/MS analysis; assay type: ADME, organism-based; details: in vivo, read-out: beta t1/2 (converted)
Mus musculus [13] = assay: Anti-inflammatory activity against DSS-induced acute ulcerative colitis C57BL/6 mouse model assessed as reduction in fecal occult blood at 20 to 40 mg/kg, po once a day measured after 2 days followed by 7 days after DSS treatment; assay type: functional, organism-based; details: dose 20-40 mg/kg, time 2.0 day
[14] = Cmax in Balb/C mouse at 10 mg/kg, po measured upto 48 hrs by LC-MS/MS analysis; assay type: ADME, organism-based; set-up: dose 10 mg/kg, time < 48 hrs, route po; details: in vivo
[15] = Cmax in Balb/C mouse at 10 mg/kg, iv measured upto 48 hrs by LC-MS/MS analysis; assay type: ADME, organism-based; set-up: dose 10 mg/kg, time < 48 hrs, route iv; details: in vivo
[16] = target: T2, Receptor-interacting serine/threonine-protein kinase 1 (Homo sapiens, UniProt Q13546); assay: Inhibition of human RIPK1 by kinase assay
T2 sequence (Q13546 whole entry): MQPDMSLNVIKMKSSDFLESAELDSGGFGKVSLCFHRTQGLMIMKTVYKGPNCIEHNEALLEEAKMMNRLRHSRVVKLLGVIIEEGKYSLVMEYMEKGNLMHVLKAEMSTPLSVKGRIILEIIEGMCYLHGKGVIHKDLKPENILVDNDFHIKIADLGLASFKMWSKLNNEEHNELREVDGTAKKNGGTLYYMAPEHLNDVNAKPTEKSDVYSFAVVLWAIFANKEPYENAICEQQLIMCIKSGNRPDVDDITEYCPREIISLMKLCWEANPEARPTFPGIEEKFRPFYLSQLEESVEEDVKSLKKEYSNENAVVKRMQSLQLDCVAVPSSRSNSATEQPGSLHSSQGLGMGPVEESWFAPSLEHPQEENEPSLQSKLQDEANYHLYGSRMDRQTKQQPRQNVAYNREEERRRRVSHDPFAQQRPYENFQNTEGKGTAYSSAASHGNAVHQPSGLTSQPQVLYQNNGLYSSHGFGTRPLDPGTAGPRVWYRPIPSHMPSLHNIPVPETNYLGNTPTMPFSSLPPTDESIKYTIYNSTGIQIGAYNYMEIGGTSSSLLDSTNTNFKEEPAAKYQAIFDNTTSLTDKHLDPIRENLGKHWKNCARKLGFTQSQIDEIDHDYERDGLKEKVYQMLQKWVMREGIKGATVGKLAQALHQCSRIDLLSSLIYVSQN

Mus musculus [17] = assay: Anti-inflammatory activity against DSS-induced acute ulcerative colitis C57BL/6 mouse model assessed as reduction in disease severity at 20 to 40 mg/kg, po once a day measured after 2 days followed by 7 days after DSS treatment; assay type: functional, organism-based; details: dose 20-40 mg/kg, time 2.0 day
Mus musculus [18] = assay: Anti-inflammatory activity against DSS-induced acute ulcerative colitis C57BL/6 mouse model assessed as recovery of weight loss at 20 mg/kg, po for 6 consecutive days; assay type: functional, organism-based
RAW264.7 = assay: Cytotoxicity against mouse RAW264.7 cells at 62.5 to 250 nM in presence of NOD measured after 24 hrs by propidium iodide staining based flow cytometry; assay type: toxicity, cell-based; details: raw264.7, 24 h, 0.25 µM, dose 62.5-250 nM

Q: For Cc1ccc(-c2cn([C@H]3CC[C@@H](N)CC3)c3ncnc(N)c23)c(F)c1, which CL/F [1] is on record?
A: The CL/F was 1130 mL/min/kg.

Q: What about the pKd [2] of the same compound?
A: The pKd was 7.13.

Q: And the pKd [3]?
A: Its pKd is 6.17.

Q: And the pIC50 [4]?
A: The pIC50 was 7.82.

Q: And the pIC50 [5]?
A: The pIC50 was 6.06.

Q: What about the pKd [6] of the same compound?
A: The pKd was 9.55.

Q: What about the concentration at 8 h [7] of the same compound?
A: The concentration at 8 h was 9140 ng/g.

Q: What about the Activity (Mus musculus [8]) of the same compound?
A: Its Activity is “Active”.

Q: What about the Activity (BMDM) of the same compound?
A: The Activity was “Non-Toxic”.

Q: And the AUC(0-t) at 48 h [9]?
A: Its AUC(0-t) at 48 h is 151 ng·h/mL.

Q: And the Activity (Mus musculus [10])?
A: The Activity was “Active”.

Q: What about the pIC50 [11] of the same compound?
A: The pIC50 was 4.91.

Q: What about the half-life [12] of the same compound?
A: Its half-life is 3.9 h.

Q: And the Activity (Mus musculus [13])?
A: The Activity was “Active”.

Q: And the Cmax [14]?
A: The Cmax was 68.1 ng/mL.

Q: And the Cmax [15]?
A: The Cmax was 959 ng/mL.

Q: What about the pIC50 [16] of the same compound?
A: The pIC50 was < 4.52.

Q: What about the Activity (Mus musculus [17]) of the same compound?
A: Its Activity is “Active”.

Q: And the Activity (Mus musculus [18])?
A: Its Activity is “Active”.

Q: What about the Activity (RAW264.7) of the same compound?
A: The Activity was “Non-Toxic”.
